Experimental data as given in patent US12396992B2, “Organic compounds” (INTRA-CELLULAR THERAPIES, INC., priority 2019, dated 2025).
“Also recorded” adds a separate entry of the source.

Columns and labels:
BV2 cells [1] = experiment: ADP-induced chemotaxis of BV2 cells in Boyden chamber; type: cell-based, mouse; details: 100 μM ADP, 4 hrs
Experimental: Chemotaxis towards 100 μM ADP was measured in a Boyden chamber system for 4 hrs against a vehicle control. BV2 cells were added to the upper chamber of a 5 μm pore Boyden chamber with 100 μM ADP or vehicle in the lower chamber and incubated at 37′C with 5% CO2 for 4 hours. The curve was fit to a 4-parameter logarithmic equation with the following constraints: top >80% and bottom <20%. […] As shown in the left panel of FIG. 7A, raw fluorescence counts (relative fluorescence units or RFU), representing the cell count in the lower chamber, were used to calculate control conditions. The Vehicle condition represents the minimum migration, in which there was no ADP present. The maximum migration was shown as the 100 μM ADP condition.
The measured potency correlates with documented IC50 values.

P2Y12 = P2Y12 (Homo sapiens, UniProt Q9H244); details: P2Y12 inhibitors; read-out: documented IC50; cited from earlier work
Chain of P2Y12 (Q9H244 whole entry, species assumed): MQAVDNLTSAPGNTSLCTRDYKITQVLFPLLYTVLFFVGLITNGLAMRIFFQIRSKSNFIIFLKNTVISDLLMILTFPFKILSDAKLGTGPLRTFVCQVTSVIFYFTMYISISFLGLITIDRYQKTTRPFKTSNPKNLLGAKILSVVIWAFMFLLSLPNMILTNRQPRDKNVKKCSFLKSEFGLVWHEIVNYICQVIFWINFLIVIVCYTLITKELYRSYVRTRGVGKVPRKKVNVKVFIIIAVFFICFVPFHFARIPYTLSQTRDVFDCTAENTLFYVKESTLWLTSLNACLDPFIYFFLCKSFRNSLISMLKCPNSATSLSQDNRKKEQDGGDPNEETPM

BV2 cells [2] = experiment: Quantitative PCR of inflammatory cytokine mRNA in LPS-stimulated BV2 cells; type: cell-based, mouse; details: for LPS-induced expression of Ccl2 / LPS-induced expression of IL1β / LPS-induced expression of TNFα: FIG. 3a; for Chemokine (C—C) motif Ligand 2 expression / Interleukin 1 beta expression / Tumor necrosis factor expression: BV2 + LPS, Q-PCR, initial results
Experimental: Levels of IL1 are measured using quantitative PCR of IL1β mRNA. IL1β is considered a marker of inflammation. Results are depicted in FIG. 2 (RQ: relative quantification of changes in gene expression in treated versus control samples; ***p<0.01 vs control, √p<0.01 vs LPS alone; ANOVA with Newman-Keuls post-hoc test).
BV2 cells are pretreated with compound, ITI-214 or rolipram, a PDE4 inhibitor, then stimulated with 50 ng/ml LPS for 4 hours. Expression levels of TNF, IL1β, Ccl2, and IL6 are measured. Normalized mRNA levels are shown as change from vehicle (ΔΔCt) and compared using a one-way ANOVA. […] The mRNA transcripts for TNF, IL1β, and Ccl2—three of the four cytokines studied in vivo—were elevated in BV2 cells treated with 50 ng/ml LPS.
(§1) The test compound is added first, the LPS is added one hour later, and the cells and/or media are harvested at five hours from commencement of the experiment.
Cells: BV2 mouse microglial cell line (ICLC, Italy) grown in 2% or 10% heat-inactivated FBS.
(§2) RTqPCR: RNA from BV2 cells purified using RNeasyKit (Qiagen) and from mouse tissue using TRIzol (Ambion). TaqMan primer-probe assays from Thermo Fisher. mRNA levels for all conditions are normalized to GAPDH and to vehicle control (ΔΔCt). Data are analyzed statistically using one-way ANOVA with the Bonferroni post-test for multiple comparisons.

BV2 cells [3] = experiment: LPS-induced TNFα release from BV2 cells (ELISA); type: cell-based, mouse; details: 50 ng/ml LPS stimulation, FIG. 4
Experimental: TNFα release: TNFα levels are measured in BV2 conditioned media and normalized to cell protein levels. Inhibition of LPS-induced TNFα release from BV2 cells is depicted in FIG. 4.
as §1
TNFα ELISA: Thermo Fisher mouse TNFα colorimetric, sandwich ELISA kit. Interpolate values from standard curve. Dose response is fit to a 4-parameter logistic curve.

mouse striatum [4] = experiment: LPS-induced inflammatory gene expression in mouse striatum (Q-PCR); type: in vivo
Experimental: as §2
Data from yet another experiment measuring the effect of PDE1 inhibition on inflammatory gene expression in mouse striatum is depicted in FIG. 6. […] Striatal tissue is analyzed for mRNA levels of TNF, IL1β, Ccl2, and IL6. Expression levels are shown as change in Q-PCR signal from vehicle (ΔΔCt) and compared using an ANOVA. * p<0.05, **p<0.01, ***p<0.001.
The Applicants measure mRNA levels of four common inflammatory markers (TNF, IL1β, Ccl2, and IL6) using quantitative PCR (FIG. 7).

BV2 cells [5] = experiment: cAMP (ELISA) and P-VASP S157 (Western blot) in BV2 cells with ADP; type: cell-based, mouse; details: for P-VASP level at baseline / cAMP level at baseline: no ADP stimulation
Experimental: Cell lysates on a Western were blotted with an antibody to phosphorylated VASP at S157, and the intensity of the resulting bands were measured (as raw signal). […] There was no effect of PDE1 inhibition at baseline, consistent with the hypothesis that PDE1 is important under conditions of stimulation. […] As with cAMP, PDE1 activity (sensitive to ITI-214) appears to contribute about 50% to the total PDE activity (sensitive to IBMX) under conditions of stimulation while having no contribution at baseline. The dose dependent nature of the increase in cAMP is illustrated in FIG. 9.

[6] = tested on: primary cultured microglia; experiment: VASP phosphorylation in primary cultured rat microglia; type: cell-based; details: 1 μM
Experimental: The above results were replicated in primary cultured microglia isolated from P2 rat whole brain (FIG. 10). Microglia were grown in culture for 12 days in serum-free media containing TGFb2, IL34, and cholesterol. The cells maintained properties in culture consistent with quiescent microglial-like cells, staining positive for Iba1 and maintaining a branched morphology.

[7] = tested on: CT26 colorectal carcinoma cells; experiment: CT26 colorectal carcinoma engrafted subcutaneously in mice; type: in vivo, mouse; details: for number of macrophages (CD45 positive) in the tumor microenvironment: 50 mg/kg, i.p., once daily
Experimental: Mice were engrafted subcutaneously with CT26 colorectal carcinoma cells. Control mice were administered 150 μg IgG (Isotype).

BV2 cells [8] = experiment: Quantitative PCR of inflammatory cytokine mRNA in LPS-stimulated BV2 cells; type: cell-based, mouse; details: LPS 10 microgram/ml, Compound 214 10 microgram/ml, FIG. 2
mouse striatum [9] = experiment: LPS-induced inflammatory gene expression in mouse striatum (Q-PCR); type: in vivo; details: initial results
bovine brain PDE1 = biological target: T1, bovine brain PDE1 (Bos taurus, UniProt Q01061); experiment: IMAP phosphodiesterase assay, PDE1; type: biochemical
T1 construct: IC50; other: bovine brain PDE1; Ki; other: bovine brain PDE1 assay
T1 sequence (Q01061 whole entry): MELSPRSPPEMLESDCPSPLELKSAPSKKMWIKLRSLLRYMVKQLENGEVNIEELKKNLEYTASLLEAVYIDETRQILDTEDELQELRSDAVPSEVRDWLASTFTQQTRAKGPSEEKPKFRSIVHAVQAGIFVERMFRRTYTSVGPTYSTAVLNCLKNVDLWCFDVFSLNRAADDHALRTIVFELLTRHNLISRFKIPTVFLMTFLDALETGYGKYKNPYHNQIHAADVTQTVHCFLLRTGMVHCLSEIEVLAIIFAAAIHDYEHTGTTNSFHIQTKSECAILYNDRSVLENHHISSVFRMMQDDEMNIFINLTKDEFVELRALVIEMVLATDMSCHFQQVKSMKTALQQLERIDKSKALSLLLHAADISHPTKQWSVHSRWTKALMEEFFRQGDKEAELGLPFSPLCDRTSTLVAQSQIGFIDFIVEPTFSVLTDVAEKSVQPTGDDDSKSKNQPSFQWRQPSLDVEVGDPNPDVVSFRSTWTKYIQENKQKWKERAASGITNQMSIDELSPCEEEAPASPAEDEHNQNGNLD
Text: Briefly, the IMAP reagent binds with high affinity to the free 5′-phosphate that is found in GMP-fluorescein and not in cGMP-fluorescein. The resulting GMP-fluorescein-IMAP complex is large relative to cGMP-fluorescein. Small fluorophores that are bound up in a large, slowly tumbling, complex can be distinguished from unbound fluorophores, because the photons emitted as they fluoresce retain the same polarity as the photons used to excite the fluorescence.
The PDE1 enzyme is reconstituted with 50% glycerol to 2.5 U/ml. […] The compounds are mixed and pre-incubated with the enzyme for 10 min at room temperature.
The reaction is incubated in dark at room temperature for 15 min.

HL60 cells = experiment: cGMP levels in PMA-differentiated HL60 cells with ANP and ionomycin (competitive ELISA); type: cell-based, human
Experimental: We have shown that there is a synergistic effect between ANP and PDE1 inhibition. An immortalized human pro-myeloid cell line (HL60 from ATCC) is grown, differentiated and harvested as described in Bender, A T, and Beavo, J A, 2006, PNAS 103, 460-465. The cells are grown in HEPES buffered RPMI 1640 medium with penicillin, streptomycin, and 10% fetal bovine serum. Phorbol-12-myristate-13-acetate (PMA), at 100 nM for 3 days, is used to differentiate the HL60 cells into macrophage-like cells. Following differentiation, the cells are incubated with a PDE1 inhibitor or vehicle (DMSO) beginning at time 0. At 40 minutes, 5 μM ionomycin (a calcium ionophore) is added. At 50 minutes, 100 nM ANP was added. At 60 minutes, the cells are harvested. Total cGMP levels are measured using a competitive ELISA (Bender and Beavo, 2006).
[drawing 33] is tested for its effect on cGMP levels in this system. […] In addition, the cGMP level attained by co-treatment with ANP and the PDE1 inhibitor is much greater than that obtained by co-treatment with ANP and a mixed PDE1/PDE5 inhibitor, SCH 51866 (used at 5 μM). In this experiment, the calcium ionophore ionomycin (used at 5 μM) is used to raise the intracellular calcium level and to counteract the cGMP rise induced by ANP.

[10] = 10 μM, 50 ng/ml LPS for 4 hours, FIG. 3b
[11] = 10 mg/kg i.p., 500 μg/kg LPS s.c., 2 hours
[12] = 10 mg/kg i.p., 500 μg/kg LPS s.c., 2 hours, does not reach significance
[13] = Striatum Mouse + LPS, Q-PCR, initial results

For `CCCSc1nc(N)c2ncn([C@@H]3O[C@H](COP(=O)(O)OP(=O)(O)C(F)(F)P(=O)(O)O)[C@@H](O)[C@H]3O)c2n1` [AR-C 66096, reference compound], the “chemotaxis of BV2 cells toward ADP” value (BV2 cells [1]) is listed as “inhibited ADP induced migration” and the IC50 (P2Y12) is listed as 6.9 nM.
For `CSCCNc1nc(SCCC(F)(F)F)nc2c1ncn2[C@@H]1O[C@H](COP(=O)(O)OP(=O)(O)C(Cl)(Cl)P(=O)(O)O)[C@@H](O)[C@H]1O` [AR-C 69931, reference compound], the “chemotaxis of BV2 cells toward ADP” value (BV2 cells [1]) was “inhibited ADP induced migration”.
In the case of `CN1C(=O)c2c(nn(Cc3ccc(-c4cccc(F)n4)cc3)c2Nc2ccccc2)N2C1=N[C@@H]1CCC[C@@H]12` [Compound 214], the “Ccl2 mRNA signal” value (BV2 cells [2]; [10]) is reported as “significantly decreased”, the “IL1β mRNA signal” value (BV2 cells [2]; [10]) is reported as “trended downward” and the “TNF mRNA signal” value (BV2 cells [2]; [10]) is reported as “significantly decreased”. For the same molecule, the “LPS-induced expression of Ccl2” value (BV2 cells [2]; 10 μM) was “significantly reduces”, the “LPS-induced expression of IL1β” value (BV2 cells [2]; 10 μM) was “significantly reduces” and the “LPS-induced expression of TNFα” value (BV2 cells [2]; 10 μM) was “significantly reduces”. The “Chemokine (C—C) motif Ligand 2 expression” value (from here on “Chemokine”) (BV2 cells [2]) was “Down”, the “Interleukin 1 beta expression” value (BV2 cells [2]) was “Down” and the “Tumor necrosis factor expression” value (BV2 cells [2]) was “Down”. The “LPS-induced TNFα release” value (BV2 cells [3]) was “dose-dependent inhibition”, the “striatal mRNA expression of Ccl2” value (mouse striatum [4]; [11]) was “attenuates” and the “striatal mRNA expression of TNF” value (mouse striatum [4]; [11]) was “attenuates”. For the same molecule, the “LPS-induced inflammatory gene expression changes in mice” value (mouse striatum [4]; 10 mg/kg i.p., 500 μg/kg LPS s.c., 2 hours, FIG. 6) was “prevents”, the “striatal mRNA level of IL1-beta” value (mouse striatum [4]; [12]) was “trended to lower levels” and the “striatal mRNA level of IL6” value (mouse striatum [4]; [12]) was “trended to lower levels”. For the same molecule, the “Chemokine” value (mouse striatum [4]; [13]) was “Down”, the “chemotaxis of BV2 cells toward ADP” value (BV2 cells [1]) was “inhibits” and the “chemotaxis of BV2 cells toward ADP” value (BV2 cells [1]; listed as compound 214) was “reduced chemotaxis of BV2 cells toward 100 μM ADP in a dose-dependent manner”. The “ADP-induced elevation in cAMP” value (BV2 cells [5]; 30 min pretreatment, ADP for 5 minutes, ELISA) was “significantly augmented”, the “ADP-induced P-VASP at serine 157” value (BV2 cells [5]; 30 min pretreatment, ADP for 5 minutes, Western blot) was “significantly augmented” and the “P-VASP level at baseline” value (BV2 cells [5]) was “no effect”. The “cAMP level at baseline” value (BV2 cells [5]) was “no effect”, the “VASP phosphorylation under basal conditions” value [6] was “little effect” and the “increase in VASP phosphorylation after ADP” value ([6]; 100 μM ADP for 5 mins) was “significantly enhanced”. For the same molecule, the “percentage of responders (tumor volume <500 mm3)” value ([7]; 1 mg, 5 days a week starting at day 7, alone) was “increase”, the “number of macrophages (CD45 positive) in the tumor microenvironment” value ([7]; alone) was “significantly reduced” and the “number of macrophages (CD45 positive) in the tumor microenvironment” value ([7]; in combination with an anti-PD1 antibody) was “significantly reduced”. For the same molecule, the “percentage of responders (tumor volume <500 mm3)” value ([7]; in combination with 150 μg Anti-PD-1 (RMP1-14) on days 7, 11, 14, 17) was “increase”, the “LPS-induced increase in expression of IL1β mRNA” value (BV2 cells [8]) was “significantly blunts; also recorded: suppresses” and the “Oncostatin M expression” value (mouse striatum [9]) was “Down”.
For `CN1C(=O)c2c(nn(Cc3ccc(C(F)(F)F)cc3)c2Nc2ccccc2)N2C1=N[C@@H]1CCC[C@@H]12` [Example 20 of U.S. Pat. No. 8,273,750, (6aR,9aS)-3-(phenylamino)-5,6a,7,8,9,9a-hexahydro-5-methyl-2-(4-(trifluoromethyl)-benzyl)-cyclopent[4,5]imidazo[1,2-a]pyrazolo[4,3-e]pyrimidin-4(2H)-one], the Ki (bovine brain PDE1) was 0.68 nM, the “cGMP level induced in HL60 cells” value (HL60 cells; 100 nM ANP + 100 nM PDE1 inhibitor, compared with ANP alone or inhibitor alone) was “greater than that induced by either the ANP alone or the PDE1 inhibitor alone” and the “effect of ionomycin on cGMP” value (HL60 cells; 5 μM ionomycin combined with ANP and the PDE1 inhibitor) was “only a weak cGMP lowering effect”. The “cGMP level attained by co-treatment with ANP” value (HL60 cells; compared with co-treatment with ANP and SCH 51866 (5 μM)) was “much greater”.
In the case of `CC(C)Cn1c(=O)n(C)c(=O)c2[nH]cnc21` [IBMX, reference compound], the “P-VASP level at baseline” value (BV2 cells [5]) is reported as “did elevate” and the “cAMP level at baseline” value (BV2 cells [5]) is reported as “did elevate”.
In the case of `COc1ccc(C2CNC(=O)C2)cc1OC1CCCC1` (centres unmarked) [rolipram, reference compound], the “LPS-induced expression of Ccl2” value (BV2 cells [2]; 10 μM) is reported as “reducing”, the “LPS-induced expression of IL1β” value (BV2 cells [2]; 10 μM) is reported as “increasing” and the “LPS-induced expression of TNFα” value (BV2 cells [2]; 10 μM) is reported as “reducing”. For the same molecule, the “Chemokine” value (BV2 cells [2]) was “Down”, the “Interleukin 1 beta expression” value (BV2 cells [2]) was “UP UP” and the “Tumor necrosis factor expression” value (BV2 cells [2]) was “Down”. For the same molecule, the “Chemokine” value (mouse striatum [4]; [13]) was “Down”, the “Interleukin 1 beta expression” value (mouse striatum [4]; [13]) was “UP-UP” and the “Interleukin 6 expression” value (mouse striatum [4]; [13]) was “UP-UP”. For the same molecule, the “Tumor necrosis factor expression” value (mouse striatum [4]; [13]) was “Down” and the “Oncostatin M expression” value (mouse striatum [9]) was “Down”.
